Test results: patent publication US9023795B2, “Angiogenesis-inhibiting peptide and application thereof” (Shanghai First People's Hospital, priority 2010, dated 2015)

Columns and labels:
[1] = test system: Human Umbilical Vein Endothelial Cells (HUVECs); experiment: Migration of primary HUVECs, Wound Healing method; type: cell-based; details: VEGF (10 ng/ml) + ZY1 1, 10, 25, 50 μg/μl, 6 hours
Procedure: The Wound Healing method was used as follows:
Primary Human Umbilical Vein Endothelial Cells (HUVECs) (purchased from ScienCell Co.) were inoculated onto a 12-well plate with an inoculation concentration of 1×10^5/ml. After cells had adhered to the wall and grown to 80%-90% of confluence, serum-free culture medium of ECM were added before cultivation at 37° C. for 24 hours. A “+” scratch was carved with the tip of a 200 μl pipettor in each well and serum-free culture medium ECM were added in negative control group. VEGF (10 ng/ml) (purchased from Sigma Co.) in positive control group, and VEGF (10 ng/ml)+ZY1 small peptide having different concentrations (1 μg/μl, 10 μg/μl, 25 μg/μl, 50 μg/μl) in treatment group were added as well. The cultivation was continued. Photos were taken for the scratches of the cells in the 12-well plate at 0 hour and 6 hour, respectively. The average width of the scratches was calculated. The migration activity was determined according to the scratch width. Finally, SPSS11.0.1 was used for statistical analysis.

[2] = test system: Human Umbilical Vein Endothelial Cells (HUVECs); experiment: Lumen formation of primary HUVECs, Matrigel method; type: cell-based; details: ZY1 at different concentrations (1, 10, 25, 50 μg/μl), VEGF 50 ng/ml, 6 hours of treatment
Procedure: The Matrigel method was used as follows:
A 50 μl/well Matrigel (purchased from BD Co.) was added into a 96-well plate before incubation at 37° C. for 30 min. After solidified, the primary HUVECs were inoculated onto the surface of the Matrigel with an inoculation concentration of 8×10^6/ml. Serum-free culture medium of ECM in negative control group, VEGF (50 ng/ml) (purchased from Sigma Co.) in positive control group, and ZY1 small peptide having different concentrations (1 μg/μl, 10 μg/μl, 25 μg/μl, 50 μg/μl) in treatment group were added into the wells. The incubation was continued at 37° C. Photos were taken for the 3 randomized fields of cells in the plate under the microscope (Magnification was 200 fold.) after 6 hours of treatment and the number of formed lumina was counted. Finally, SPSS11.0.1 was used for statistical analysis.

[3] = test system: Human Umbilical Vein Endothelial Cells (HUVECs); experiment: Chemotaxis of primary HUVECs, Transwell Chamber method; type: cell-based; details: ZY1 10, 25, 50 μg/μl in upper chamber, VEGF (50 ng/ml) in lower chamber, 24 hours
Procedure: The Transwell Chamber method was used as follows:
HUVECs (purchased from ScienCell Co.) were inoculated onto the upper chamber of Transwell chambers with an inoculation concentration of 6×10^5/ml. Serum-free culture medium of ECM or ZY1 small peptide having different concentrations (10 μg/μl, 25 μg/μl, 50 μg/μl) were added into individual upper chambers. VEGF (50 ng/ml) (purchased from Sigma Co.) was added/not added into the lower chamber as a chemotactic factor. After incubation at 37° C. for 24 hours, the cells on upper surface of Transwell Chamber membrane were wiped and the membrane was washed with PBS. Then the membrane was fixed in 4% paraformaldehyde solution and the lower surface of membrane was stained with hematoxylin, cut and then sections were prepared. Five fields on the chamber membrane under the optical microscope (Magnification was 400 fold) were randomly taken for photograph and the number of cells nucleus was counted. The chemotaxis was determined according to the number of cells nucleus on the lower surface of chamber membrane. Finally, SPSS11.0.1 was used for statistical analysis.

[4] = test system: Human Umbilical Vein Endothelial Cells (HUVECs); experiment: Proliferation of primary HUVECs, MTS method; type: cell-based; details: VEGF + ZY1, even at low concentration (1 μg/μl), 24 hours incubation
Procedure: The MTS method was used as follows:
Human Umbilical Vein Endothelial Cells (HUVECs) (purchased from ScienCell Co.) were inoculated onto a 96-well plate with an inoculation concentration of 4×10^4/ml. After cells had adhered to the wall, serum-free culture medium of ECM were added and the cells were cultivated at 37° C. for 24 hours. Then the serum-free culture medium ECM was added into each well in negative control group. VEGF (10 ng/ml) (purchased from Sigma Co.) in positive control group, VEGF (10 ng/well) ZY1 small peptide having different concentrations (1 μg/μl, 10 μg/μl, 25 μg/μl, 50 μg/μl) in treatment group were added as well. After 24 hours incubation, 20 μl MTS solution (purchased from Promega Corporation) was added in each well. After incubation at 37° C. for 4 hours, the absorbance at 490 nm for each well was measured by using Enzyme-linked Immunoassay Analysis (Bio-Rad Co.). The proliferation activity of cells was determined according to OD490. Finally, SPSS11.0.1 was used for statistical analysis.
Derived Polypeptides were prepared as follows, and the inhibition effect on proliferation of Human Umbilical Vein Endothelial Cells HUVECs was determined according to the methods in Example 6.

[5] = test system: pathological angiogenesis in the mouse retina; experiment: Retinal angiogenesis in hypoxia-induced mice; type: in vivo, C57BL/6 mice; details: intravitreal, eyeballs removed 5 days later, P<0.01
Procedure: Model of retinal angiogenesis in hypoxia-induced mice was used and the methods were as follows:
Seven days after birth, C57BL/6 mice were placed together with their breast feeding mother into an environment having a 75%±2% oxygen concentration. The mice were taken out 5 days later, and were injected intravitreally with […] ZY1 small peptides of low concentration (500 ng/μl), moderate concentration (1 μg/μl), high concentration (2 μg/μl) or control sample PBS. Mice were placed in an environment having normal air for further feeding, thereby forming the mice model of retinopathy induced by hypoxia. The eyeballs were removed 5 days later, fixed in 4% paraformaldehyde, embedded in paraffin, cut into sections, and stained with HE. The amount of the nucleus of the vascular endothelial cells in retina was counted under the optical microscope (Magnification was 200 fold). SPSS11.0.1 was used for statistical analysis.

[6] = test system: pathological angiogenesis in the mouse cornea; experiment: Corneal stroma micropocket model, VEGF-induced pathological angiogenesis in the mouse cornea; type: in vivo, C57BL/6 mice; details: 5 days after operation, compared with VEGF group
Procedure: Model of the corneal stroma micropocket was used and the methods were as follows:
Male C57BL/6 mice (aged 4-5 weeks) were intraperitoneally injected with 2% pentobarbital (about 0.1 ml/PCS) for anesthesia. 4% hydrochloric oxybuprocaine ophthalmic solution was locally administrated. Under the stereo microscope, OT syringe needle and 2 ml syringe needle was used to perform a blunt dissection between the layers of corneal stroma at 0.8-1 mm from corneoscleral limbus. A pouch of about 0.6×0.8 mm was formed. Slow-release tablets (mixture of 1:1 (v/v) of 12% poly Hydroxyethyl methacrylate (polyHEMA): sucralfate) were planted respectively into the micropocket, including negative control group (blank tablet), positive control group (VEGF group: 320 ng/μl, 160 ng/tablet), and treatment group (VEGF+ZY1 small peptides of 1 μg/tablet low concentration, 5 μg/tablet moderate concentration, or 10 μg/tablet high concentration). 5 days after operation, the length of the longest new vessel (VL is the length of the longest new blood vessel grown from limbus to the cornea), and the clock hours of corneal neovascularization (CN represents the accumulative clock hours of corneal neovascularization) were observed. Neovascularization area were calculated as followed: Area (mm^2)=0.5*3.14*VL (mm)*CN*0.4 (mm). […] was used for statistical analysis.

## CVSLLRCTGCC GDENLHCVPV (CVSLLRCTGCCGDENLHCVPV; angiogenesis-inhibiting peptide ZY1)
[1]
  inhibition of migration of primary HUVECs (scratch width): significantly inhibited
[2]
  inhibition of lumen formation of primary HUVECs (number of formed lumina): significant inhibition effect
[3]
  inhibition of chemotaxis of HUVECs (number of cell nuclei on lower surface of chamber membrane): significant inhibition effect
[4]
  inhibition of proliferation of HUVECs (OD490): significantly inhibited
[5]; high concentration (2 μg/μl)
  inhibition of pathological angiogenesis in mouse retina (amount of nucleus of vascular endothelial cells): significantly inhibited
[5]; moderate concentration (1 μg/μl)
  inhibition of pathological angiogenesis in mouse retina (amount of nucleus of vascular endothelial cells): significantly inhibited
[6]; high concentration (10 μg/tablet) + VEGF 160 ng/tablet
  inhibition of corneal angiogenesis (neovascularization area): significantly inhibited
[6]; moderate concentration (5 μg/tablet) + VEGF 160 ng/tablet
  inhibition of corneal angiogenesis (neovascularization area): significantly inhibited
